The subject of series [1] is cells derived from late infantile Batten disease (LINCL or CLN2 deficient). The series is described as follows: JC-1 mitochondrial membrane potential assay of etoposide-induced apoptosis, LINCL cells. The settings on record: for percentage of cells showing J-aggregates: two patient cell lines, JC-1 stain. The class given is cell-based, human. As for the experimental part: (§1) Batten disease-derived cell lines were tested for their susceptibility to apoptosis induced by etoposide and whether flupirtine had any protective effect against apoptosis. Cells derived from infantile Batten disease (INCL or CLN1 deficient), cells derived from late infantile Batten disease (LINCL or CLN2 deficient), and cells derived from juvenile Batten disease (JNCL or CLN3 deficient) received an 18 hour incubation in 30 μM etoposide with and without a pre-treatment with 20 μM flupirtine. As a control, cells were also left untreated. Cells were then stained with JC-1 fluorescent stain, which is a mitochondrial membrane potential-sensitive dye. When cells are alive, the mitochondrial potential is maintained and the mitochondria appear green. At the commitment point of apoptosis, proapoptotic agents like etopside cause a drop in mitochondrial membrane potential and the mitochondria appear yellow-red due to the formation of J-aggregates.
(§2) Cell counts were conducted for to determine the percentage of cells showing J-aggregates (TABLE 1).
(§3) The numbers of cells showing J-aggregates indicates the number of cells that are apoptosis-ready but are still viable.

In series [2] the test system is cells derived from infantile Batten disease (INCL or CLN1 deficient). The series is described as follows: JC-1 mitochondrial membrane potential assay of etoposide-induced apoptosis, INCL cells. The format is cell-based, human. The settings on record: for percentage of cells showing J-aggregates: two patient cell lines, JC-1 stain. As for the experimental part:
as §1, §2, §3

The subject of series [3] is cells derived from juvenile Batten disease (JNCL or CLN3 deficient). The series is described as follows: JC-1 mitochondrial membrane potential assay of etoposide-induced apoptosis, JNCL cells. The class given is cell-based, human. The method, then: as §1, §2, §3
In series [4] the test system is Costa Rican Batten disease-derived fibroblasts (CLN6 deficient). As to the kind of experiment: Protection against etoposide-induced apoptosis, Costa Rican Batten disease cells. The format is cell-based, human. The settings on record: pretreatment with flupirtine (FIG. 4). As for the experimental part: Graph represents number of living cells after treatments indicated.
Cells derived from Costa Rican Batten disease (CLN6 deficient) were also tested for their response to etoposide. The CLN6 gene remains uncharacterized, though linked to chromosome 15.

The subject of series [5] is hNT neurons (human post-mitotic, fully-differentiated neurons). The series is described as follows: Etoposide-induced apoptosis in differentiated hNT neurons. The format is cell-based. The settings on record: pre-treatment with 10 μM flupirtine, 20 μM etoposide 18 hour (FIG. 5). As for the experimental part:
Cells were visualized by fluorescent microscopy.
Finally, human post-mitotic neuronal cells were tested for thier response to flupirtine and etoposide-induced apoptosis. NT2 cells were treated with retinoic acid, then mitotic inhibitors for 6 weeks to become hNT neurons that were fully differentiated. Next, the hNT neurons received an 18 hour incubation in 20 μM etoposide with and without a pre-treatment with 10 μM flupirtine.

In series [6] the test system is retinal pigment epithelial cells and neuronal cells in culture. The settings on record: cited from earlier work.
Another series deals with stroke in rats. The settings on record: rats pretreated with flupirtine; cited from earlier work.
The conditions of series [7]: adults and children, chronically for over 12 months; cited from earlier work.
The mark [8] stands for this setting: 30 μM etoposide alone, 18 hour incubation.
Where [9] appears, read: pre-treatment with 20 μM flupirtine, then 30 μM etoposide 18 hour.

“And” between values parts separate entries of the source, which are not always exact repeats. Equal entries are not always repeated.

Regarding `COc1cc([C@@H]2c3cc4c(cc3[C@@H](O[C@@H]3O[C@@H]5CO[C@@H](C)O[C@H]5[C@H](O)[C@H]3O)[C@H]3COC(=O)[C@H]23)OCO4)cc(OC)c1O` [Etoposide], the “yellow-red J-aggregates seen by fluorescent microscopy” value in series [1] (etoposide alone (FIG. 3B)), in series [2] (etoposide alone (FIG. 3A)) and in series [3] (etoposide alone (FIG. 3C)) was “many yellow-red aggregates” in each case. The “percentage of cells showing J-aggregates” value in series [1] (setting [8]) is 100% and 96%; in series [2] (setting [8]), 61% and 51%; in series [3] (two patient cell lines, 30 μM etoposide alone, 18 hour incubation, JC-1 stain) it was 58.4% and 64%.
As to `CCOC(=O)Nc1ccc(NCc2ccc(F)cc2)nc1N` [Flupirtine, 2-amino-3-ethoxycarbonylamino-6-(p-fluorobenzylamino)-pyridine], the “protection afforded by Flupirtine” value in series [1] (J-aggregate counts, etoposide vs etoposide + flupirtine) was “almost complete”. Also, the “yellow-red J-aggregates seen by fluorescent microscopy” value in series [1] (flupirtine pretreated, then etoposide (FIG. 3B)) was “no aggregates”; in series [2] (flupirtine pretreated, then etoposide (FIG. 3A)) it was “no aggregates”; in series [3] (flupirtine pretreated, then etoposide (FIG. 3C)), “no aggregates”. In addition, the “percentage of cells showing J-aggregates” value was 0% and 1.8% in series [1] (setting [9]); 6.7% and 10.8% in series [2] (setting [9]). Further, the “protection from etoposide-induced apoptosis (number of living cells)” value in series [4] is listed as “protected from etoposide-induced apoptosis”. Besides, the “effect on etoposide-induced apoptosis” value in series [5] is recorded as “completely blocked etoposide-induced apoptosis”. Moreover, the effect on apoptosis result in series [6] was “counteract apoptosis”. For the same molecule, the “area of ischemia induced by stroke” value with stroke in rats was “reduce the area of ischemia”. The “tolerability in chronic use” value in series [7] is recorded as “without undue side effect or addiction”.

The record behind these values is patent US6821995B1, “Method of treating batten disease” (priority 1999, dated 2004).
